Test system: NOMO1
Experiment: cell viability relative to DMSO control; higher = less cytotoxic
Settings: 48 h
Procedure, shortened: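 NOMO1, SEM and P12-Ichikawa leukemia cells spent at least four passages adapting to each medium before use. They were seeded at 500 cells/well (NOMO1, SEM) or 1000 cells/well (P12-Ichikawa) in 5 μl in 1536-well plates and pin-dosed with library compounds in DMSO at 11 threefold steps from 47 μM down to 0.79 nM. After 48 h at 37°C, CellTiter-Glo One luminescence was read. Viability is reported as a percentage of the DMSO wells on each plate, with cell-free wells as background.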

[1] = HPLM + 10% dialyzed FBS, 0.000781 µM
[2] = HPLM + 10% dialyzed FBS, 0.00234 µM
[3] = HPLM + 10% dialyzed FBS, 0.00702 µM
[4] = HPLM + 10% dialyzed FBS, 0.0211 µM
[5] = HPLM + 10% dialyzed FBS, 0.0632 µM
[6] = HPLM + 10% dialyzed FBS, 0.19 µM
[7] = HPLM + 10% dialyzed FBS, 0.569 µM
[8] = HPLM + 10% dialyzed FBS, 1.71 µM
[9] = HPLM + 10% dialyzed FBS, 5.12 µM
[10] = HPLM + 10% dialyzed FBS, 15.4 µM
[11] = HPLM + 10% dialyzed FBS, 46.1 µM
[12] = RPMI 5 mM glucose + 10% FBS, 0.000781 µM
[13] = RPMI 5 mM glucose + 10% FBS, 0.00234 µM
[14] = RPMI 5 mM glucose + 10% FBS, 0.00702 µM
[15] = RPMI 5 mM glucose + 10% FBS, 0.0211 µM
[16] = RPMI 5 mM glucose + 10% FBS, 0.0632 µM
[17] = RPMI 5 mM glucose + 10% FBS, 0.19 µM
[18] = RPMI 5 mM glucose + 10% FBS, 0.569 µM
[19] = RPMI 5 mM glucose + 10% FBS, 1.71 µM
[20] = RPMI 5 mM glucose + 10% FBS, 5.12 µM
[21] = RPMI 5 mM glucose + 10% FBS, 15.4 µM
[22] = RPMI 5 mM glucose + 10% FBS, 46.1 µM
[23] = RPMI 5 mM glucose + 10% dialyzed FBS, 0.000781 µM
[24] = RPMI 5 mM glucose + 10% dialyzed FBS, 0.00234 µM
[25] = RPMI 5 mM glucose + 10% dialyzed FBS, 0.00702 µM
[26] = RPMI 5 mM glucose + 10% dialyzed FBS, 0.0211 µM
[27] = RPMI 5 mM glucose + 10% dialyzed FBS, 0.0632 µM
[28] = RPMI 5 mM glucose + 10% dialyzed FBS, 0.19 µM
[29] = RPMI 5 mM glucose + 10% dialyzed FBS, 0.569 µM
[30] = RPMI 5 mM glucose + 10% dialyzed FBS, 1.71 µM
[31] = RPMI 5 mM glucose + 10% dialyzed FBS, 5.12 µM
[32] = RPMI 5 mM glucose + 10% dialyzed FBS, 15.4 µM
[33] = RPMI 5 mM glucose + 10% dialyzed FBS, 46.1 µM

| Structure (SMILES) | cell viability [1] | cell viability [2] | cell viability [3] | cell viability [4] | cell viability [5] | cell viability [6] | cell viability [7] | cell viability [8] | cell viability [9] | cell viability [10] | cell viability [11] | cell viability [12] | cell viability [13] | cell viability [14] | cell viability [15] | cell viability [16] | cell viability [17] | cell viability [18] | cell viability [19] | cell viability [20] | cell viability [21] | cell viability [22] | cell viability [23] | cell viability [24] | cell viability [25] | cell viability [26] | cell viability [27] | cell viability [28] | cell viability [29] | cell viability [30] | cell viability [31] | cell viability [32] | cell viability [33] |
| --- | --- | --- | --- | --- | --- | --- | --- | --- | --- | --- | --- | --- | --- | --- | --- | --- | --- | --- | --- | --- | --- | --- | --- | --- | --- | --- | --- | --- | --- | --- | --- | --- | --- |
| COc1ccc(-c2ccc3ncc4c(c3c2)n(-c2ccc(N3CCNCC3)c(C(F)(F)F)c2)c(=O)n4C)cn1 | 97.7% | 79.7% | 57.1% | 67% | 51.5% | 45.9% | 47.4% | 24.6% | 4.81% | 3.74% | 2.4% | 105% | 100% | 90.4% | 79.7% | 70% | 54.5% | 49.1% | 32.6% | 32% | 4.07% | 3.17% | 94.5% | 78.3% | 70.9% | 70.5% | 57% | 46.1% | 42.9% | 29.8% | 5.1% | 3.25% | 1.92% |
| N[S+]([O-])(=O)C1=C(Cl)C=C2\N=C/N[S+]([O-])(=O)C2=C1 | 109% | 109% | 119% | 122% | 114% | 121% | 118% | 119% | 109% | 116% | 124% | 94.2% | 100% | 109% | 100% | 112% | 105% | 112% | 107% | 114% | 99.5% | 101% | 101% | 105% | 106% | 112% | 112% | 108% | 102% | 105% | 112% | 105% | 105% |
| Cc1ccccc1C(=O)c1ccc(Nc2ccc(Br)cc2N)cc1Cl |  |  |  |  |  |  |  |  |  |  |  | 107% | 123% | 116% | 122% | 120% | 113% | 110% | 121% | 116% | 103% | 90.1% | 131% | 116% | 112% | 120% | 118% | 126% | 107% | 121% | 114% | 93.7% | 71.5% |
| C[C@](O)(CS(=O)(=O)c1ccc(F)cc1)C(=O)Nc1ccc(C#N)c(C(F)(F)F)c1 | 106% | 100% | 111% | 121% | 126% | 128% | 104% | 123% | 115% | 116% | 134% | 103% | 108% | 128% | 140% | 133% | 141% | 134% | 128% | 126% | 133% | 137% | 112% | 119% | 132% | 135% | 127% | 124% | 129% | 131% | 129% | 120% | 131% |
| C[C@@H](Oc1cc(-c2cnn(C3CCNCC3)c2)cnc1N)c1c(Cl)ccc(F)c1Cl |  |  |  |  |  |  |  |  |  |  |  | 118% | 116% | 113% | 115% | 131% | 129% | 108% | 107% | 96.3% | 71.8% | 56.2% | 114% | 116% | 107% | 124% | 118% | 119% | 119% | 110% | 83% | 64.8% | 47.4% |
| CC(C)c1nc(CN(C)C(=O)N[C@H](C(=O)N[C@@H](Cc2ccccc2)C[C@H](O)[C@H](Cc2ccccc2)NC(=O)OCc2cncs2)C(C)C)cs1 | 92.4% | 107% | 100% | 95.3% | 89.9% | 88.9% | 98.5% | 70.5% | 94.4% | 80.7% | 74.3% | 75.3% | 75.3% | 78.5% | 81.2% | 77.4% | 80.2% | 77.6% | 79.3% | 79.9% | 75.7% | 79% | 86.5% | 80.7% | 93% | 90.6% | 92.8% | 83.2% | 81.7% | 77.1% | 84.9% | 79.2% | 77.1% |
| Cn1cnc2c(F)c(Nc3ccc(Br)cc3F)c(C(=O)NOCCO)cc21 | 91.4% | 83.3% | 95.9% | 27.1% | 62.4% | 56.4% | 57.7% | 41.4% | 34.3% | 40% | 35.3% | 83.3% | 80.2% | 82.4% | 16.4% | 75.5% | 66.2% | 50.2% | 42.6% | 37.5% | 31.2% | 36.5% | 77.1% | 90.2% | 98.7% | 37.9% | 75.3% | 49.6% | 45.4% | 40.5% | 39.6% | 34.5% | 34.6% |
| S=C(NCc1ccc2c(c1)OCO2)N1CCN(c2ncnc3c2oc2ccccc23)CC1 | 110% | 113% | 124% | 104% | 105% | 98.2% | 113% | 105% | 75.7% | 64.1% | 9.67% | 117% | 120% | 116% | 110% | 114% | 111% | 109% | 98.2% | 104% | 80% | 26.2% | 116% | 106% | 119% | 107% | 112% | 107% | 112% | 97.1% | 95.8% | 89% | 48.8% |

Source: the supplement of paper PMC11451515
